Assay: Pharmacokinetic study in the rat
Assay type: in vivo
Experimental: Aqueous solution formulations of test compounds were prepared in 0.1% lactic acid at a pH of between about 5 and about 6. Male Sprague-Dawley rats (CD strain, Charles River Laboratories, Wilmington, Mass.) were dosed with test compounds via intravenous administration (IV) at a dose of 2.5 mg/kg or by oral gavage (PO) at a dose of 5 mg/kg. The dosing volume was 1 mL/kg for IV and 2 mL/kg for PO administration. Serial blood samples were collected from animals pre-dose, and at 2 (IV only), 5, 15, and 30 min, and at 1, 2, 4, 8, and 24 hours post-dose. Concentrations of test compounds in blood plasma were determined by liquid chromatography-mass spectrometry analysis (LC-MS/MS) (MDS SCIEX, API 4000, Applied Biosystems, Foster City, Calif.) with a lower limit of quantitation of 1 ng/mL.
Standard pharmacokinetic parameters were assessed by non-compartmental analysis (Model 201 for IV and Model 200 for PO) using WinNonlin (Version 4.0.1, Pharsight, Mountain View, Calif.). The maximum in the curve of test compound concentration in blood plasma vs. time is denoted Cmax. The area under the concentration vs. time curve from the time of dosing to the last measurable concentration (AUC(0-t)) was calculated by the linear trapezoidal rule. Oral bioavailability (F(%)), i.e. the dose-normalized ratio of AUC(0-t) for PO administration to AUC(0-t) for IV administration, was calculated as: F(%)=AUCPO/AUCIV×DoseIV/DosePO×100%

[1] = male Sprague-Dawley rats, blood plasma, PO 5 mg/kg

## CC(=O)N1CCN(CCN2[C@@H]3CC[C@H]2CC(NC(=O)c2nn(C(C)C)c4ccccc24)C3)CC1 (stereo partly drawn) [Example 1, 1-isopropyl-1H-indazole-3-carboxylic acid {(1S,3R,5R)-8-[2-(4-acetylpiperazin-1-yl)ethyl]-8-azabicyclo[3.2.1]oct-3-yl}amide]
[1]
  AUC(0-t): 730 ng·h/mL
  Cmax: 250 ng/mL
rat, PO 5 mg/kg versus IV 2.5 mg/kg, dose-normalized AUC(0-t) ratio
  oral bioavailability (F(%)): about 100%

Source: patent US8044045B2, “Indazole-carboxamide compounds as 5-HT4 receptor agonists” (Theravance, Inc., priority 2004, dated 2011)
